The numbers were not newly measured in US20060069047A1, “Antibiotic conjugates” (priority 2002, published 2006), which cites them from elsewhere.

The test system of data set [1] is PMN. The conditions noted are these: intracellular/extracellular concentration, PMN incubated 1 h.
For data set [2], the system named is phagocytic cells.
The conditions of data set [3]: in vivo.

Structures are written as SMILES.

Take `C[C@H]1COc2c(N3CCN(C)CC3)c(F)cc3c(=O)c(C(=O)O)cn1c23` [Levofloxacin]: in data set [1], the I/E ratio is given as 4.8.
For the molecule `CC[C@H]1OC(=O)[C@H](C)[C@@H](O[C@H]2C[C@@](C)(OC)[C@@H](O)[C@H](C)O2)[C@H](C)[C@@H](O[C@@H]2O[C@H](C)C[C@H](N(C)C)[C@H]2O)[C@](C)(O)C[C@@H](C)CN(C)[C@H](C)[C@@H](O)[C@]1(C)O` [Azithromycin], in data set [2], the “cellular-to-extracellular concentration ratio (C/E)” value is on record as approximately 500. Moreover, the I/E ratio in data set [1] is 517. Further, the “half-life (t1/2)” value in data set [3] was approximately 68 h.
For `CC1(C)SC2C(NC(=O)Cc3ccccc3)C(=O)N2C1C(=O)O` (stereo not shown) [Penicillin G, 3,3-Dimethyl-7-oxo-6-phenylacetylamino-4-thia-1-aza-bicyclo[3.2.0]heptane-2-carboxylic acid], the I/E ratio in data set [1] is listed as 0.16.
For the molecule `CC[C@H]1OC(=O)[C@H](C)C(=O)[C@H](C)[C@@H](O[C@@H]2O[C@H](C)C[C@H](N(C)C)[C@H]2O)[C@](C)(OC)C[C@@H](C)C(=O)[C@H](C)[C@H]2N(CCCCn3cnc(-c4cccnc4)c3)C(=O)O[C@]12C` [Telithromycin], the I/E ratio in data set [1] is given as 197.
As to `COc1c(N2C[C@@H]3CCCN[C@@H]3C2)c(F)cc2c(=O)c(C(=O)O)cn(C3CC3)c12` [Moxifloxacin], in data set [1], the I/E ratio is reported as 12.0.
